From publication PMC4604408, “Targeting the Parasite's DNA with Methyltriazenyl Purine Analogs Is a Safe, Selective, and Efficacious Antitrypanosomal Strategy” (Antimicrobial Agents and Chemotherapy, 2015)
Entries after “also recorded” stand apart in the source; their conditions may differ. Read-outs that look alike come from different tables or passages of the source.

Legend:
[1] = tested on: Tbb msh2+/+; experiment: microbe, parasite or virus in culture; assay type: cell-based, Trypanosoma brucei; settings: read-out: Tbb msh2+/+ (EC50; µM) AVG
[2] = tested on: HEK293 (human embryonic kidney 293T cells)
[3] = tested on: T. brucei brucei 427 tbat1^−/−; experiment: microbe, parasite or virus in culture; assay type: cell-based; settings: for EC50: Trypanosoma brucei, read-out: In vitro activity (EC50) T. brucei brucei 427 tbat1^−/−
[4] = tested on: T. brucei brucei WT (strain 427); experiment: microbe, parasite or virus in culture; assay type: cell-based; settings: for EC50: Trypanosoma brucei, read-out: In vitro activity (EC50) T. brucei brucei WT; for SI, in vitro selectivity index: EC50(HEK)/EC50(T. brucei brucei WT)
[5] = biological target: T. brucei H2 (hypoxanthine transporter 2 of T. brucei brucei); assay type: cell-based; settings: read-out: Transport (Ki value) T. brucei H2
[6] = tested on: HEK293 (human embryonic kidney 293T cells); experiment: cells; settings: read-out: In vitro activity (EC50) HEK293
[7] = tested on: Tbb msh2-/-; experiment: microbe, parasite or virus in culture; assay type: cell-based, Trypanosoma brucei; settings: for EC50: read-out: Tbb msh2-/- (EC50; µM) AVG
[8] = tested on: Tbb msh2+/-; experiment: microbe, parasite or virus in culture; assay type: cell-based, Trypanosoma brucei; settings: read-out: Tbb msh2+/- (EC50; µM) AVG
[9] = tested on: bloodstream-form T. brucei; experiment: potency in Creek's minimal medium with inosine or hypoxanthine as purine source; assay type: cell-based
[10] = biological target: T. brucei H2 (hypoxanthine transporter 2 of T. brucei brucei); design: method as in PMID 9364969; settings: natural substrates; read-out: Transport (Ki value) T. brucei H2; cited from earlier work
[11] = tested on: T. brucei rhodesiense (STIB 900); experiment: stringent mouse model of trypanosomiasis; assay type: in vivo; settings: female NMRI mice, 50 mg/kg i.p. for four consecutive days from day 3 postinfection
Experimental: The experiments were performed essentially as described previously ([26]). Female NMRI mice were infected intraperitoneally (i.p.) with 10^4 bloodstream-form T. brucei brucei (strain STIB 795) or 3 × 10^3 T. brucei rhodesiense (strain STIB 900). Experimental groups of four mice were treated i.p. with test drug daily on four consecutive days starting from day 3 postinfection. A control group was infected but remained untreated. The tail blood of each mouse was checked for parasitemia up to 60 days postinfection; mice were culled when parasitemia was >10^8 trypanosomes/ml of blood. Surviving and aparasitemic mice at day 60 were considered cured and were euthanized. All protocols and procedures used in this study were reviewed and approved by the local veterinary authorities of the Canton Basel-Stadt, Switzerland.
Figure S4. Methyltriazenyl purine 1 has a high cure rate in acute T. b. rhodesiense infection in vivo. Kaplan–Meier survival plot for female NMRI mice (n = 4 per group) after infection with T. b. rhodesiense (STIB900) (inoculum 3×10^3 parasites). Intraperitoneal injection with 1 dissolved in DMSO started 3 days after infection at a single dose of 50 mg/kg

[12] = tested on: BF T. brucei; experiment: growth curves of treated bloodstream-form trypanosomes; assay type: cell-based; settings: 15 µM for 72 h in Fig. S7
Experimental: Given its promising antiparasitic efficacy in vitro and in vivo, we selected lead compound 1 for further antitrypanosomal mechanism-of-action studies. […] We analyzed the DNA content of these cells over 24 h by flow cytometry (Fig. 3B; see also Fig. S7 in the supplemental material). After 4 h of exposure to 15 μM compound 1, we observed a decrease in the proportion of cells with normal diploid (2C) DNA content, whereas an aberrant population of cells started to appear with a DNA content between 2C and 4C. […] We also monitored the karyotype distribution of BF T. brucei over time (see Fig. S8 in the supplemental material), using DAPI staining to visualize nuclei (N) and kinetoplasts (K). Within the first 8 h (the normal time to complete one cell cycle) of exposure to compound 1, we observed a significant increase in 1N2K cells, with a coincident decrease in 1N1K and 2N2K. […]
FIG 3 Methyltriazenyl purines cause cell cycle arrest in the G2/M phase in T. brucei. […] (b) DNA content of BF T. brucei in the presence or absence of 15 μM compound 1, as determined by propidium iodide staining of fixed cells and measured by fluorescence-activated cell sorting (FACS). […]
Figure S7. […] B) Long term growth curve of bloodstream form T.b. brucei s427 cultures (seeded at 5 × 10^5 cells/mL) exposed to 15 µM of 1 (closed squares) or vehicle only (open circles) monitored for 72 hours. […]

[13] = assay type: in vivo; settings: up to 10 × 50 mg/kg i.p. daily
[14] = tested on: T. brucei brucei (STIB 795); experiment: mouse model of acute trypanosomiasis; assay type: in vivo; settings: female NMRI mice, 50 mg/kg i.p. daily for 4 days from day 3 postinfection
[15] = tested on: His– S. typhimurium strains TA98 and TAMix; experiment: Ames II mutagenicity assay; assay type: cell-based, Salmonella typhimurium; settings: before (–S9) and after (+S9) metabolic activation, 62.5 µM to 2 mM
[16] = tested on: freshly isolated rat hepatocytes; experiment: hepatotoxicity on freshly isolated rat hepatocytes; assay type: cell-based; settings: 100 µM, up to 120 min
Experimental: page 11: Figure S3 A B C 125 125 125 100 100 100 75 75 75 50 50 50 25 Contr ol 25 Contr ol 25 Contr ol 0 + NA1371 0 +NA1371 0 +NA1371 0 30 60 90 120 0 30 60 90 120 0 30 60 90 120 […] ) Figure S3. […] (A) Hepatocytes from male Sprague-Dawley rats were isolated as described (4, 5) and hepatotoxicity assays were performed as described (6). […] or left untreated. Cell viability was determined by a Trypan blue exclusion test. Values are normalized to t=0 min (%). (B) The reduced glutathione (GSH) content of hepatocytes was determined by an O-phthaldehyde fluorimetric test. […] (C) The total protein content of hepatocytes was determined by a Lowry assay. […]

[17] = tested on: BF T. brucei brucei; experiment: TUNEL assay for DNA strand breaks in trypanosomes; assay type: cell-based; settings: 3 μM, 24 h
[18] = tested on: BF T. brucei; experiment: DNA content by propidium iodide staining and flow cytometry; assay type: cell-based; settings: 15 μM, 24 h
[19] = spontaneous triazene hydrolysis by UV spectroscopy; settings: 50 µM in PBS at 37 °C, physiological conditions, n=2
[20] = tested on: T. b. rhodesiense STIB 900; experiment: microbe, parasite or virus in culture; assay type: cell-based; settings: Trypanosoma brucei, read-out: Trypanosoma brucei rhodesiense EC50
[21] = tested on: P. falciparum K1 strain; experiment: microbe, parasite or virus in culture; assay type: cell-based; settings: Plasmodium falciparum, K1, read-out: Plasmodium falciparum EC50
[22] = physchem; settings: buffer
[23] = inhibition of 0.05 μM [3H]hypoxanthine uptake, 60 s, mean ± SEM, n ≥ 3
[24] = Creek's minimal medium, same concentration of inosine or hypoxanthine

Row | SMILES | EC50 ([1]; Trypanosoma brucei) [µM] | EC50 [3] [µM] | EC50 [4] [µM] | EC50 [6] [µM] | EC50 ([7]; Trypanosoma brucei) [µM] | EC50 ([8]; Trypanosoma brucei) [µM] | SI, in vitro selectivity index [4] | further results
1 | O=C(NN=Nc1nc(O)c2[nH]cnc2n1)Oc1ccccc1 [Compound 5] | 192 | > 100 | > 100 | > 250 | 168 | 166 |  | toxicity to HEK293T cells (in words) [2]: did not show any toxic effects; antitrypanosomal potency against BF T. brucei in vitro (in words) [4]: did not show any toxic effects; Ki [5, 23]: 0.09 ± 0.02 µM
2 | Cc1ccc(C(=O)Nc2ccc(S(=O)(=O)O)c3cc(S(=O)(=O)O)cc(S(=O)(=O)O)c23)cc1NC(=O)c1cccc(NC(=O)Nc2cccc(C(=O)Nc3cc(C(=O)Nc4ccc(S(=O)(=O)O)c5cc(S(=O)(=O)O)cc(S(=O)(=O)O)c45)ccc3C)c2)c1 [suramin] |  |  |  |  |  |  |  | sensitivity (EC50) in medium with inosine compared to hypoxanthine as purine source [9, 24]: not significantly different
3 | N=C(N)c1ccc(OCCCCCOc2ccc(C(=N)N)cc2)cc1 [Pentamidine] | 0.011 |  |  |  | 0.004 | 0.011 |  | sensitivity (EC50) in medium with inosine compared to hypoxanthine as purine source [9, 24]: not significantly different
4 | COS(C)(=O)=O [MMS, methyl methanesulfonate] | 48.9 |  |  |  | 46.7 | 57.2 |  | 
5 | Nc1nc2nc[nH]c2c(=O)[nH]1 [Guanine] |  |  |  |  |  |  |  | Ki [10]: 0.36 ± 0.18 µM
6 | N=C(N)c1ccc(/N=N/Nc2ccc(C(=N)N)cc2)cc1 [DIM, diminazene, reference compound] | 0.5 | 7.9 ± 0.7 | 0.26 ± 0.05 |  | 0.68 | 0.64 |  | fold lower activity against tbat1^−/− cells than wild type ([3]; tbat1^−/− versus wild-type): 30 fold
7 | CC(=O)N(C)N=Nc1nc(O)c2[nH]cnc2n1 [Compound 1, 2-(3-acetyl-3-methyltriazen-1-yl)-6-hydroxypurine] | 0.87 | 0.52 ± 0.08 | 0.42 ± 0.05 | > 250 | 3.9 | 1.5 | >595 | cure rate [11]: 75%; effect on culture proliferation [12]: Cell growth is arrested and the cells eventually die; also recorded: arrested in its proliferation; tolerability [13]: well tolerated; cure rate [14]: 100%; survival of treated mice [14]: > 60 days; mutagenic activity in Ames II test [15]: negative (not mutagenic); also recorded: did not reveal any mutagenic activity; antitrypanosomal potency against BF T. brucei in vitro (in words) [4]: submicromolar; hepatotoxic effects, hepatocyte viability (Trypan blue exclusion) [16]: does not show toxic effects; also recorded: no hepatotoxic effects; total protein content of hepatocytes (Lowry assay) [16]: No protein loss; increase in BrdU incorporation (DNA strand breaks) [17]: 2 fold; DNA content of treated cells [18]: majority of cells having an apparent 4C DNA content; hydrolysis half-life [19]: ~6.8 h; half-life at 50 µM ([19]; PBS, hydrolysis half-life): 6.8 ± 0.4 h; sensitivity (EC50) in medium with inosine compared to hypoxanthine as purine source [9]: higher; Ki [5]: 0.59 ± 0.15 µM; potency against cells with impaired or lost MSH2 activity [7]: reduced potency
8 | CN(N=Nc1nc(N)c2[nH]cnc2n1)C(=O)Oc1ccccc1 [Compound 6] |  | 10.7 ± 0.4 | 10.4 ± 0.5 | > 100 |  |  | >24 | Ki [5, 23]: 0.46 ± 0.08 µM
9 | O=c1[nH]cnc2nc[nH]c12 [Hypoxanthine] |  |  |  |  |  |  |  | Ki [10]: 0.12 ± 0.03 µM
10 | N.N.[Cl][Pt][Cl] [Cisplatin] |  |  |  |  |  |  |  | EC50 [1]: 13.4 µM; EC50 [7]: 13.6 µM; EC50 [8]: 17.7 µM
11 | Cn1nnc2c(C(N)=O)ncn2c1=O [TMZ, temozolomide] | 95 |  |  |  | 173 | 204 |  | potency against cells with impaired or lost MSH2 activity [7]: reduced potency
12 | Nc1ncnc2[nH]cnc12 [Adenine] |  |  |  |  |  |  |  | Ki [10]: 3.2 ± 1.1 µM
13 | CN(N=Nc1nc(N)c2[nH]cnc2n1)C(=O)Oc1ccc([N+](=O)[O-])cc1 [Compound 7] |  | 20.7 ± 4.6 | 19.4 ± 4.1 | > 250 |  |  | >13 | 
14 | CC(=O)N(C)/N=N/c1nc(OCc2ccccc2)c2nc[nH]c2n1 [Compound 9] |  |  |  |  |  |  |  | Ki [5]: 5.8 ± 0.01 µM
15 | CN(N=Nc1nc(O)c2[nH]cnc2n1)C(=O)Oc1ccc([N+](=O)[O-])cc1 [Compound 4] |  | 157 ± 55 | 114 ± 34 | > 250 |  |  | >2 | antitrypanosomal potency against BF T. brucei in vitro (in words) [4]: practically lost antitrypanosomal activity
16 | CCOC(=O)N(C)/N=N/c1nc(O)c2nc[nH]c2n1 [Compound 3] |  | 2.86 ± 0.13 | 1.84 ± 0.08 | > 250 |  |  | >136 | Ki [5]: 0.12 ± 0.03 µM
17 | CN(/N=N/c1nc(OCc2ccccc2)c2nc[nH]c2n1)C(=O)Oc1ccccc1 [Compound 10] |  |  |  |  |  |  |  | EC50 [20]: 8.9 µM; EC50 [21]: > 10 µM; Ki [5, 23]: 22.5 ± 9.2 µM
18 | CN(N=Nc1nc(O)c2[nH]cnc2n1)C(=O)Oc1ccccc1 [Compound 2] | 2.3 | 1.21 ± 0.19 | 0.8 ± 0.07 | > 250 | 6.8 | 4.3 | >312 | half-life at 50 µM [22]: 5.6 ± 0.3 h; Ki [5, 23]: 0.2 ± 0.06 µM; potency against cells with impaired or lost MSH2 activity [7]: reduced potency
